Measurements: US20070108405A1, “Compositions and methods for delivery of biologically active agents” (FH FAULDING & CO., LTD., priority 2003, published 2007)
Marks after values point to notes of the source that are not given here.

Assay: Solubility of active agents in surfactants (saturation, HPLC)
Type: physicochemical
Settings: 40° C., mean of three ± SD unless a (single) or b (duplicate); for Solubility Irinotecan HCl: irinotecan HCl in the surfactant; for Solubility Irinotecan base: irinotecan base in the surfactant; for Solubility Paclitaxel: paclitaxel in the surfactant
Procedure: In order for the surfactants to be useful as components of the delivery system, it is important to be able to dissolve biologically active agents in the surfactant or in the water. Table 3 illustrates that the surfactants are useful for dissolving three pharmaceutical compounds that may potentially be delivered using the invention. Solubility was determined by saturation of the surfactant with solid drug at 40° C. until saturation is achieved. Drug level was determined by reverse phase HPLC. Values given are the mean of three separate samples±standard deviation, unless denoted otherwise.

Row | Structure (SMILES) | Solubility Irinotecan HCl | Solubility Irinotecan base | Solubility Paclitaxel
1 | CC(C)CCCC(C)CCCC(C)CCOC(=O)C(O)CO (centres unmarked) [2,3-Dihydroxypropionic acid 3,7,11-trimethyl-dodecyl ester] | 4.58^a mg/g | 3.92^b mg/g | 7.25^b mg/g
2 | CC(C)CCCC(C)CCCC(C)CCCC(C)CCOC(=O)C(O)CO (centres unmarked) [2,3-Dihydroxypropionic acid 3,7,11,15-tetramethyl-hexadecyl ester] | 4.33 ± 0.37 mg/g | 64.54 ± 4.65 mg/g | 4.83 ± 0.83 mg/g
3 | CCCCCCCCC=CCCCCCCCCOC(=O)C(O)CO (centres unmarked) [2,3-Dihydroxypropionic acid octadec-9-enyl ester] | 9.69 ± 0.74 mg/g | 35.66 ± 1.26 mg/g | 8.43 ± 0.23 mg/g
4 | CC(C)CCCC(C)CCCC(C)CCCC(C)CCNC(=O)NCCO (centres unmarked) [1-(3,7,11,15-tetramethyl-hexadecyl)-3-(2-hydroxyethyl)urea] | 4.36 ± 0.30 mg/g | 0.94 ± 0.02 mg/g | 5.67 ± 1.64 mg/g
5 | CC(C)CCCC(C)CCCC(C)CCCC(C)CCN(CCO)C(N)=O (centres unmarked) [1-(3,7,11,15-tetramethyl-hexadecyl)-1-(2-hydroxyethyl)urea] | 0.43 ± 0.20 mg/g | 0.35 ± 0.001 mg/g | 0.87 ± 0.18 mg/g

Second part, the molecule after the results:

Row | Solubility Irinotecan HCl | Solubility Irinotecan base | Solubility Paclitaxel | Structure (SMILES)
6 | – | 6.22^a mg/g | 6.66^a mg/g | CC(C)CCCC(C)CCCC(C)CCCC(C)CC(=O)OCC(O)CO (centres unmarked) [3,7,11,15-tetramethyl-hexadecanoic acid 1-glycerol ester]
7 | 33.83 ± 5.98 mg/g | 3.76 ± 0.45 mg/g | 34.65 ± 2.34 mg/g | CC(C)CCCC(C)CCCC(C)CCNC(N)=O (centres unmarked) [3,7,11-Trimethyl-dodecyl urea]
8 | 1.63 ± 0.64 mg/g | 0.44 ± 0.11 mg/g | 7.85 ± 1.93 mg/g | CC(C)CCCC(C)CCCC(C)CCCC(C)CCNC(N)=O (centres unmarked) [3,7,11,15-Tetramethyl-hexadecyl urea]
